The values that follow come from patent US7659305B2, “Therapeutic proline derivatives” (Pfizer Inc., priority 2002, dated 2010).

pIC50: −log10 of the molar value. Where a name gives a salt, the structure may show the parent alone.

The target in the assay is T1, α2δ subunit derived from porcine brain tissue (Sus scrofa, UniProt A0A287BIN3).
T1 construct: the α2δ subunit derived from porcine brain tissue; from tissue; host or cells: porcine brain tissue
T1 sequence (A0A287BIN3 25-1109): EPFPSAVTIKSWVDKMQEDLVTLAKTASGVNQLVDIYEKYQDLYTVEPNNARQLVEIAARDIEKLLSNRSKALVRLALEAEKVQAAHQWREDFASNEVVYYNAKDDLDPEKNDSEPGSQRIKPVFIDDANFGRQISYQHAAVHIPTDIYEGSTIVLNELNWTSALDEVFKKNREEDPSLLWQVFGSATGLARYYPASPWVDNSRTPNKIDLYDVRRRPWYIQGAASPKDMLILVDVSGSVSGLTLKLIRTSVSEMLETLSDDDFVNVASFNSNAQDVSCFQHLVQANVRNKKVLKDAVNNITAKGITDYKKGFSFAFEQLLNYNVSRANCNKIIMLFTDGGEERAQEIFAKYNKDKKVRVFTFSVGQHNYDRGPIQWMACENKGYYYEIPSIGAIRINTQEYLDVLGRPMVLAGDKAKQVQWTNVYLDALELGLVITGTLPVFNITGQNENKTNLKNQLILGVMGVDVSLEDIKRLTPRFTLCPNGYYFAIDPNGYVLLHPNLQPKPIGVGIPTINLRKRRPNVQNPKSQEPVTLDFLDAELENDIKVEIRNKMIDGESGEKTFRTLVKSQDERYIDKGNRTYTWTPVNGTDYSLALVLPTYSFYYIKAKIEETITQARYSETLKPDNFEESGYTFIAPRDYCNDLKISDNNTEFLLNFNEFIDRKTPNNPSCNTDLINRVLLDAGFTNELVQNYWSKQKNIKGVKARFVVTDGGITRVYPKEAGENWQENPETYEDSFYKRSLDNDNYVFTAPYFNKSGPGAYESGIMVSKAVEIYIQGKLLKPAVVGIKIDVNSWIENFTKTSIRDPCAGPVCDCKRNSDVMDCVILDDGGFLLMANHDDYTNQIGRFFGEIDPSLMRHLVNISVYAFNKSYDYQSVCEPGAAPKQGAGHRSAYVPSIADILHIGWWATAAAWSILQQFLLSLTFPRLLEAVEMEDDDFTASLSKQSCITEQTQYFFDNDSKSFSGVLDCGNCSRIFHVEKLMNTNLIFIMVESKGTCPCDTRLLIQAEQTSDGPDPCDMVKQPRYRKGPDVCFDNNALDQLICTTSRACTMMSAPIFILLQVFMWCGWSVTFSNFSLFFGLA
The experiment in a line: radioligand binding assay using [3H]gabapentin. To be noted: [3H]gabapentin binding. An excerpt:
The biological activity of the alpha-2-delta ligands of the invention may be measured in a radioligand binding assay using [^3H]gabapentin and the α2δ subunit derived from porcine brain tissue (Gee N. S., Brown J. P., Dissanayake V. U. K., Offord J., Thurlow R., Woodruff G. N., J. Biol. Chem., 1996;271:5879-[…]). Results may be expressed in terms of μM or nM α2δ binding affinity.
Broadly, the pIC50 is the negative decadic logarithm of the IC50, by convention in mol/L. In turn, `O=C(O)[C@@H]1C[C@H](OCc2ccc(Cl)cc2)CN1` [Example 2, (2S,4S)-4-[(4-chlorobenzyl)oxyl]-pyrrolidine-2-carboxylic acid] showed a pIC50 of 6.92.

As for `O=C(O)[C@@H]1C[C@H](Sc2ccccc2)CN1` [Example 4, (2S,4S)-4-phenylthio-pyrrolidine-2-carboxylic acid], the pIC50 was 7.14.

As to `O=C(O)[C@@H]1C[C@H](Oc2ccc3ccncc3c2)CN1` [Example 7], the pIC50 is 6.68.

Consider `O=C(O)[C@@H]1C[C@H](Oc2cccc(Cl)c2)CN1` [Example 8, (2S,4S)-4-(3-Chloro-phenoxy)-pyrrolidine-2-carboxylic acid], for which the pIC50 is 8.30.

As for `O=C(O)[C@@H]1C[C@H](Cc2cccc(F)c2)CN1` [Example 10, (2S,4S)-4-(3-Fluoro-benzyl)-pyrrolidine-2-carboxylic acid mono hydrochloride salt], the negative logarithm of the IC50 (pIC50) is 7.96.

Turning to `O=C(O)[C@@H]1C[C@H](Cc2cccc(F)c2F)CN1` [Example 11, (2S,4S)-4-(2.3-Difluoro-benzyl)-pyrrolidine-2-carboxylic acid mono-hydrochloride salt], the pIC50 is 7.82.

For `O=C(O)[C@@H]1C[C@H](Cc2cc(F)ccc2F)CN1` [Example 12, (2S,4S)-4-(2,5-Difluoro-benzyl)-pyrrolidine-2-carboxylic acid mono hydrochloride salt], the negative-log IC50 (pIC50) is 8.15.

For the compound `COc1cccc(C[C@@H]2CN[C@H](C(=O)O)C2)c1` [Example 14, (2S,4S)-4-(3-Methoxy-benzyl)-pyrrolidine-2-carboxylic acid mono hydrochloride salt], the pIC50 was 8.05. This pIC50 and that of the compound before are within 0.2 log units of each other.
